Where two headings read alike, the source gives them in different places.
Tests used:
[1] = In vitro stability in simulated gastric fluid (SGF); type: in vitro ADME; conditions: SGF for 1 h
Protocol: (§1) In vitro stability studies: Gastrointestinal (GI) fluid stability studies were performed in simulated gastric fluid (SGF) and simulated intestinal fluid (SIF). All the required media were prepared according to the USP guidelines. Mouse plasma stability were performed for neat-spiked and plasma spiked samples (pre-extraction) at 37° C. for 4 h. In addition to the analyte stability in matrix, at 48 h stability of the extracted samples was performed at 4° C. in the autosampler.

[2] = In vitro stability in simulated intestinal fluid (SIF); type: in vitro ADME; conditions: SIF for 2 h
Protocol: as §1

[3] = In vitro stability in mouse plasma; type: in vitro ADME
Excerpt: (§2) Liquid chromatography and mass spectrometry (LCMS/MS): The ultra-performance liquid chromatography mass spectrometry system (UPLC-MS/MS) consisted of a Shimadzu 8060NX mass spectrometer and Nexera Series UPLC (Shimadzu Scientific Instruments, Columbia, MD). Analyte separation was achieved utilizing an Acquity UPLC® BEH column (C18, 2.1×100 mm, 1.7 μm) equipped with an Acquity UPLC C18 guard column (Waters, Inc. Milford MA). The mobile phase consisted of water containing 0.1% formic acid (mobile phase A) and methanol (mobile phase B) at a flow rate of 0.25 mL/min operated at room temperature. The total run time was set to last 7.5 min with a gradient elution as follows: 35% B, increasing to 95% B over 3.5 minutes, then held constant for 3.0 minutes, and finally brought back to the initial condition of 35% B in 0.20 minutes followed by 1-minute re-equilibration. The injection volume (2 μL) was consistent for all samples. The auto-sampler chamber was maintained at 4° C. throughout the analysis.
Plasma sample preparation: Plasma samples were prepared by spiking 5 μL of the appropriate calibration (CC) and quality (QCs) control working stock into a 45 μL blank mouse plasma. The concentration of the CC ranged from 0.2-1000 ng/mL with the final concentrations of 0.2, 0.5, 1, 5, 10, 50, 100, 500, and 1000 ng/mL. A simple protein precipitation technique using Phree 96 well phospholipid elimination plate (Phenomenex Inc, Torrance CA.) was utilized to isolate analyte from the plasma matrix. The CC, QCs and study plasma samples were added to Phree 96 well plate and spiked with 10 μL of IS a working solution. The precipitation of the matrix proteins was carried out using 300 μL of ice-cold acetonitrile. The plate was again vortexed on mixmate at 950 rpm for 2 min followed by applied 5 psi positive pressure for 10 min (Resprep VM-96 Vacuum Manifold for 96-Well Plates, Catalog #25858) (Restek; Bellefonte, PA) to collect the supernatant. Two microliters of the reconstituted sample was injected into LC-MS/MS for analysis. […]

[4] = In vitro metabolic stability in mouse liver microsomes; type: in vitro ADME; conditions: 1 μg/mL
Protocol: (§3) In vitro metabolic stability in liver microsomes: Metabolic stability was assessed using mouse and human liver microsomes, (XenoTech, LLC, Lenexa, KS). Incubation of A1-r and 4r with the microsome fractions was performed in triplicate utilizing a concentration of 1 μg/mL as previously described. Serial samples (40 μL) were collected at selected time intervals and quenched with 300 μL of acetonitrile and then spiked with 10 μL of IS (0.5 μg/mL). All the samples were vortexed and centrifuged at 13,000×g for 15 min, and the supernatant was collected and transferred to an autosampler vial and injected (2 μL) onto the LC-MS/MS system. Testosterone, 7-HC and diclofenac were used as positive controls to ensure that the microsomes and incubation conditions were appropriate to conduct metabolism studies.

[5] = In vitro metabolic stability in human liver microsomes; type: in vitro ADME; conditions: 1 μg/mL
Protocol: as §3

[6] = In vivo pharmacokinetic study, oral gavage; set-up: species or system BALB/c mice
Excerpt: as §2
The MS/MS system was operated at unit resolution in the multiple reaction monitoring (MRM) in positive ESI mode, using precursor ion>product ion combinations of 427.20>105.10 for A1-r and 413.15>265.10 m/z for 4r. The mass spectrometer source settings were optimized to the following: nebulizer gas: 2.0 L/min; heating gas: 10 L/min; drying gas: 10 L/min; interface temperature: 300° C.; desolvation line temperature: 250° C.; heat block temperature: 400° C. Data acquisition and quantitation were performed using LabSolutions software Ver.5.99 (Shimadzu Scientific Inc, Columbia, MD).
Plasma sample preparation: Plasma samples were prepared by spiking 5 μL of the appropriate calibration (CC) and quality (QCs) control working stock into a 45 μL blank mouse plasma. The concentration of the CC ranged from 0.2-1000 ng/mL with the final concentrations of 0.2, 0.5, 1, 5, 10, 50, 100, 500, and 1000 ng/mL. A simple protein precipitation technique using Phree 96 well phospholipid elimination plate (Phenomenex Inc, Torrance CA.) was utilized to isolate analyte from the plasma matrix. The CC, QCs and study plasma samples were added to Phree 96 well plate and spiked with 10 μL of IS a working solution. The precipitation of the matrix proteins was carried out using 300 μL of ice-cold acetonitrile. The plate was again vortexed on mixmate at 950 rpm for 2 min followed by applied 5 psi positive pressure for 10 min (Resprep VM-96 Vacuum Manifold for 96-Well Plates, Catalog #25858) (Restek; Bellefonte, PA) to collect the supernatant. Two microliters of the reconstituted sample was injected into LC-MS/MS for analysis.
In vivo pharmacokinetic studies: Animal studies were approved by the University of Nebraska Medical Center (UNMC) Institutional Animal Care and Use Committee (IACUC protocol number 17-046-06-FC). BALB/c mice were purchased from Charles River Labs. Pharmacokinetic (PK) studies of A1-r and 4r were conducted in BALB/c mice. Animals were housed in the University of Nebraska Medical Center animal facility, for at least 7 days prior to the experiments, in order to acclimatize the animals to the laboratory conditions, at a temperature of 23-24° C., relative humidity of 40-70% and 12/12 h light/dark cycles with free access to food and water. The dosing solution was made of DMSO-Polyethylene glycol 400 (PEG400)-Propylene glycol (PG)-EtOH-Cremophore-PBS (2/20/10/10/5/53% v/v). Compound A1-r or 4r (10 mg/kg) was administered separately by oral gavage. After dosing, approximately 50 μL of blood was collected from the maxillary vein at 5, 15, 30 minutes and 1, 2, 7, and 24 hr (5 mice/group/per time point). A total of three blood samples were collected, with the third blood sample a terminal collection. Plasma was separated by centrifugation at 4,000×g at 4° C. for 10 minutes. The collected plasma samples were stored at −80° C. until analysis. […]

[7] = test system: 22Rv1 tumor xenograft model of prostate cancer; experiment: 22Rv1 tumor xenograft study; type: in vivo, NSG mice
Protocol: Tumor xenograft study: All animal experiments were carried out according to approved Institutional Animal Care and Use Committee protocols at the University of Texas Southwestern Medical Center (Dallas, TX). Five-week-old female NSG mice (low circulating testosterone) were implanted with 3×10^6 22 Rv1 cells (ATCC, mycoplasma negative) in matrigel. When tumor volume reached approximately 125 mm^3 (day 11), mice were randomly divided into three groups of six mice. One group was treated with vehicle control PO (0.5% Methocel A4M+0.1% Tween 80)+vehicle IP (10% DMSO/10% cremophor EL/80% D5W). One group was treated with vehicle PO+IP 25 mg/kg A1-r in 10% DMSO/10% cremophor EL/80% D5W. One group was treated with vehicle PO+IP 50 mg/kg 4r in 10% DMSO/10% cremophor EL/80% D5W. Dosing was continued for a total of 26 days. Tumor volumes were measured twice a week with Vernier calipers, and tumor volume was calculated as (L×W^2)×3.14)/6 as previously reported. 2-3 hours after a final IP dose, animals were humanely euthanized, and tumors were collected, weighed, and frozen in liquid nitrogen after taking pictures.

[8] = biological target: AKR1C3 (Homo sapiens (Human), UniProt P42330); experiment: AKR enzyme inhibition assay, NADP+ dependent oxidation of S-tetralol, AKR1C3; type: biochemical; conditions: for Selectivity 1C2:1C3: ratio of AKR1C2 to AKR1C3 IC50; for selectivity over AKR1C2: AKR1C3 over AKR1C2
Protocol: (§4) Structure-Activity Relationship: The ability of compounds to inhibit AKR1C3 in the first instance were determined by measuring the NADP+ dependent oxidation of S-tetralol catalyzed by recombinant enzyme as described herein. […] Assay of enzyme activity: The dehydrogenase activities of AKR1C1, AKR1C2, and AKR1C3 were determined by measuring the formation of NADH formation at 340 nm using Beckman DU640 spectrophotometer. […] After continuously monitoring for 5 min, the increase in UV absorption using different concentrations of enzyme were recorded to calculate the initial velocity and determine enzyme specific activity. IC50 value determination: The inhibitory potency for each compound was represented by IC50 value and measured as described before. […] The concentration of S-tetralol used in the assays for each AKR1C isoform was equal to the Km value for the respective enzyme so that IC50 values could be directly compared assuming a competitive pattern of inhibition. […] In this equation, “range” is the fitted uninhibited value minus the “background”, and “S” is a slope factor. “I” is the concentration of inhibitor. The equation assumes that y falls with increasing “I”.

[9] = biological target: AKR1C1 (Homo sapiens (Human), UniProt Q04828); experiment: AKR enzyme inhibition assay, NADP+ dependent oxidation of S-tetralol, AKR1C1; type: biochemical; conditions: Table 2; recombinant enzyme, S-tetralol at Km; read-out: IC50 ± SD AKR1C1
Protocol: (§5) Assay of enzyme activity: The dehydrogenase activities of AKR1C1, AKR1C2, and AKR1C3 were determined by measuring the formation of NADH formation at 340 nm using Beckman DU640 spectrophotometer. […] After continuously monitoring for 5 min, the increase in UV absorption using different concentrations of enzyme were recorded to calculate the initial velocity and determine enzyme specific activity. IC50 value determination: The inhibitory potency for each compound was represented by IC50 value and measured as described before. […] The concentration of S-tetralol used in the assays for each AKR1C isoform was equal to the Km value for the respective enzyme so that IC50 values could be directly compared assuming a competitive pattern of inhibition. […] In this equation, “range” is the fitted uninhibited value minus the “background”, and “S” is a slope factor. “I” is the concentration of inhibitor. The equation assumes that y falls with increasing “I”.

[10] = biological target: AKR1C2 (Homo sapiens (Human), UniProt P52895); experiment: AKR enzyme inhibition assay, NADP+ dependent oxidation of S-tetralol, AKR1C2 counter-screen; type: biochemical; conditions: Table 2; recombinant enzyme, S-tetralol at Km; read-out: IC50 ± SD AKR1C2
Protocol: as §4

[11] = biological target: AKR1C4 (Homo sapiens (Human), UniProt P17516); experiment: AKR enzyme inhibition assay, AKR1C4; type: biochemical; conditions: Table 2; recombinant enzyme; read-out: IC50 ± SD AKR1C4
Protocol: as §5

[12] = after oral administration (10 mg/kg) of 4r, Balb/c mice, plasma, mean ± SD, n = 5
[13] = Table 2, recombinant enzyme, S-tetralol at Km, read-out: IC50 ± SD AKR1C3
[14] = after oral administration (10 mg/kg) of A1-r, Balb/c mice, mean ± SD, n = 5
[15] = after oral administration (10 mg/kg) of A1-r, Balb/c mice, plasma, mean ± SD, n = 5

Sequence of AKR1C4 (P17516 whole entry): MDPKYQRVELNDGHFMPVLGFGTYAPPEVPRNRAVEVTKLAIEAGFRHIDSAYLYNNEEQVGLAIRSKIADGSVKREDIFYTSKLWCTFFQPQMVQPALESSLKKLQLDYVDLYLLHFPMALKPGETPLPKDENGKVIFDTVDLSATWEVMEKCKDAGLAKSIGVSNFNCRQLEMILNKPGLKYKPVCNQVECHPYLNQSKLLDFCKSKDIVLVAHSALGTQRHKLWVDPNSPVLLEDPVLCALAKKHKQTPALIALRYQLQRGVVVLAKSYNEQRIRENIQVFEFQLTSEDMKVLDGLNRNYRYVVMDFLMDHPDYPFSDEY
Sequence of AKR1C1 (Q04828 whole entry): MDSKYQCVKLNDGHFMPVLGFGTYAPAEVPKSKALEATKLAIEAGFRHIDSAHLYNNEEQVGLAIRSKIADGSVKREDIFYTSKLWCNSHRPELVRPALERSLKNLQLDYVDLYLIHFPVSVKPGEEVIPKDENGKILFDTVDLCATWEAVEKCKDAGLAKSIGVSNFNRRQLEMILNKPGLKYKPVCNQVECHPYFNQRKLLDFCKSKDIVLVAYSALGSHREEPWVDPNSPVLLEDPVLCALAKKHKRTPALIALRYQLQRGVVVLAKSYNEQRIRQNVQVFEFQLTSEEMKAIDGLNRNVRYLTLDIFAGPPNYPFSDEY
Sequence of AKR1C3 (P42330 whole entry): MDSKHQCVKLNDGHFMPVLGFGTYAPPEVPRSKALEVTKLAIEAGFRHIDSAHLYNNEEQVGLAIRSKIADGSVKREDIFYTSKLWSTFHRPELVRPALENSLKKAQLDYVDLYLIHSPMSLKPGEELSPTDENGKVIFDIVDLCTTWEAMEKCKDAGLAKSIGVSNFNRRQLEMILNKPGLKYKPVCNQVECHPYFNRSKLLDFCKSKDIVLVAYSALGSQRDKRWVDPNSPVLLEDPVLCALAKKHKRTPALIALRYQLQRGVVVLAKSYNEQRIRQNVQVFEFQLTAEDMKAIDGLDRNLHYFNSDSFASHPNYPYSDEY
Sequence of AKR1C2 (P52895 whole entry): as the sequence (Q04828 whole entry) above, with T38V, R47H, L54V, C87S, V151M, R170H, Q172L counted along it

Row | Selectivity 1C2:1C3 ([8]; Table 2) | IC50 [8, 13] [µM] | IC50 [9] [µM] | IC50 [10] [µM] | IC50 [11] [µM] | SMILES | IC50 ([8]; read-out: IC50 AKR1C3) [µM] | other results
1 | – | – | – | – | – | COC(=O)/C=C/c1cc(C(=O)NCc2ccc(C)cc2)cc(-c2ccc3ncnn3c2)c1 [Compound 4r, Methyl (E)-3-(3-([1,2,4]triazolo[1,5-a]pyridin-6-yl)-5-((4-methylbenzyl)carbamoyl)phenyl)acrylate] | – | stability in simulated gastric fluid (SGF) [1]: stable; stability in simulated intestinal fluid (SIF) [2]: stable; time until reduced to below detectable limits in mouse plasma ([3]; exposure to mouse plasma): ≤ 30 min; stability in mouse plasma ([3]; mouse plasma, 37° C.): unstable; degraded in MLM [4]: approximately 25%; degraded in HLM [5]: approximately 25%; AUC0-t [6, 12]: 36.416 ng·h/mL; Cmax [6, 12]: 92.796 ng/mL; Tmax [6, 12]: 19 min; detection in systemic circulation 1 hour post administration ([6]; oral 10 mg/Kg 4r, 1 hour post administration): undetectable; reduction of tumor volume ([7]; 25 mg/Kg IP once a day for 26 days, 22Rv1 tumors in NSG mice): approximately 30%; reduction of tumor burden ([7]; 50 mg/Kg IP once a day for 26 days, 22Rv1 tumors in NSG mice): approximately 45%; mouse body weight ([7]; 25 and 50 mg/Kg IP once a day for 26 days, NSG 22Rv1 tumor-bearing mice): no observed loss of mouse body weight
2 | 1216 | 0.051 ± 0.006 | > 100 | 62 ± 21 | 43 ± 6 | Cc1ccc(CNC(=O)c2cc(/C=C/C(=O)O)cc(-c3ccc4ncnn4c3)c2)cc1 [Compound A1-r, (E)-3-(3-([1,2,4]triazolo[1,5-a]pyridin-6-yl)-5-((4-methylbenzyl)carbamoyl)phenyl)acrylic acid] | – | stability in simulated gastric fluid (SGF) [1]: stable; stability in simulated intestinal fluid (SIF) [2]: stable; time stable in mouse plasma ([3]; mouse plasma): over 240 minutes; metabolic stability in MLM ([4]; % parent remaining): stable; metabolic stability in HLM ([5]; % parent remaining): stable; AUC0-t [6, 12]: 6382.8 ng·h/mL; Cmax [6, 12]: 11599.4 ng/mL; Tmax [6, 12]: 12 min; CI/F [6, 14]: 323 mL/min/kg; Extrapolated AUC % [6, 14]: 28.8%; Vz/F [6, 14]: 405.0 L/kg; AUC0-INF [6, 15]: 515.1 ng·h/mL; AUC0-t [6, 15]: 367.6 ng·h/mL; Cmax [6, 15]: 174.8 ng/mL; Tmax [6, 15]: 6 min; t1/2 [6, 15]: 864 min; detection at the last study point (24 hours) ([6]; oral 10 mg/Kg 4r, 24 hours): detected; time at which detected in plasma after oral administration ([6]; oral 10 mg/Kg, male Balb/C mice): ≤ 5 min
3 | >2500 | – | > 100 | > 100 | 21 ± 2.5 | Cc1ccc(CNC(=O)c2cc(/C=C/C(=O)O)cc(-c3ccccc3)c2)cc1 [Compound A1-a, (E)-3-(5-((4-Methylbenzyl)carbamoyl)-[1,1′-biphenyl]-3-yl)acrylic acid] | 0.04 | selectivity over AKR1C2 [8]: > 2320 fold
4 | 109 | 0.11 ± 0.017 | 80 ± 13 | 12 ± 2.8 | 22 ± 2.3 | Cc1ccc(CNC(=O)c2cc(/C=C/C(=O)O)cc(-c3ccc4cccnc4c3)c2)cc1 [Compound A1-p, (E)-3-(3-((4-Methylbenzyl)carbamoyl)-5-(quinolin-7-yl)phenyl)acrylic acid] | – | –
5 | 187 | 0.08 ± 0.01 | 52 ± 7 | 15 ± 2.4 | 31 ± 5 | CC(C)=CCOc1cc(/C=C/C(=O)O)cc(C(=O)NCc2ccc(C)cc2)c1 [Compound 10, (E)-3-(3-((4-Methylbenzyl)carbamoyl)-5-((3-methylbut-2-en-1-yl)oxy)phenyl)acrylic acid] | – | –
6 | >1430 | 0.07 ± 0.009 | > 100 | > 100 | 15.4 ± 1.7 | Cc1ccc(CNC(=O)c2cc(/C=C/C(=O)O)cc(-c3ccccc3F)c2)cc1 [Compound A1-e, (E)-3-(2′-Fluoro-5-((4-methylbenzyl)carbamoyl)-[1,1′-biphenyl]-3-yl)acrylic acid] | – | –
7 | – | – | 78 ± 9.3 | 14 ± 4.1 | 6.1 ± 0.47 | Cc1ccc(CNC(=O)c2cc(/C=C/C(=O)O)cc(-c3ccc4ccccc4c3)c2)cc1 [Compound A1-o, (E)-3-(3-((4-Methylbenzyl)carbamoyl)-5-(naphthalen-2-yl)phenyl)acrylic acid] | 0.1 | selectivity over AKR1C2 [8]: 140 fold

Row | SMILES | Selectivity 1C2:1C3 ([8]; Table 2) | IC50 [8, 13] [µM] | IC50 [9] [µM] | IC50 [10] [µM] | IC50 [11] [µM] | IC50 ([8]; read-out: IC50 AKR1C3) [µM] | other results
8 | Cc1ccc(CNC(=O)c2cc(/C=C/C(=O)O)cc(-c3ccc4c(c3)OCO4)c2)cc1 [Compound A1-t, (E)-3-(3-(Benzo[d][1,3]dioxol-5-yl)-5-((4-methylbenzyl)carbamoyl)phenyl)acrylic acid] | – | – | > 100 | 36 ± 9.7 | 16 ± 1.6 | 0.11 | –
9 | Cc1ccc(CNC(=O)c2cc(/C=C/C(=O)O)cc(-c3ccc(Br)cc3)c2)cc1 [Compound A1-b, (E)-3-(4′-Bromo-5-((4-methylbenzyl)carbamoyl)-[1,1′-biphenyl]-3-yl)acrylic acid] | – | – | 107 ± 8 | 25 ± 7 | 6.5 ± 0.6 | 0.09 | –

Reference: patent publication US20260035340A1, “INHIBITORS OF AKR1C3 AND METHODS OF USE” (BOARD OF REGENTS OF THE UNIVERSITY OF NEBRASKA, priority 2022, published 2026)
